# Data as given in PMC5648786, “Characterization of a dual function macrocyclase enables design and use of efficient macrocyclization substrates” (Nature Communications, 2017).
# Residue numbers refer to the chain shown, from its start. Values joined by “and” are separate entries in the source; they are usually repeats but may differ in a detail not shown here. Equal entries are not always repeated. Where two headings read alike, the source gives them in different places. No end group written: not given here.
# How the values were obtained:
# [1] = biological target: T1, GmPOPB-S577A (inactive mutant) (Galerina marginata, UniProt H2E7Q8, S577A); assay: Isothermal titration calorimetry, peptide binding to inactive mutant GmPOPB_S577A; settings: for -TΔS / ΔG / ΔH / Kd / Binding detected by ITC: ITC; for -TΔS / ΔG / ΔH / Kd: 20 °C; for -TΔS / ΔG / ΔH: average ± SEM; for Kd: peptide titrated into GmPOPB_S577A, 50 mM Tris pH 8.0, 50 mM NaCl, 10 mM DTT, single-site model, n fixed at 1.0, average ± SEM of at least 2 measurements; for Binding detected by ITC: peptide concentrations up to 1 mM
# T1 construct: His-tag (TEV-cleavable) (cleaved yes); made in house; host or cells: E. coli BL21(DE3)
# T1 sequence (H2E7Q8 1-730 S577A): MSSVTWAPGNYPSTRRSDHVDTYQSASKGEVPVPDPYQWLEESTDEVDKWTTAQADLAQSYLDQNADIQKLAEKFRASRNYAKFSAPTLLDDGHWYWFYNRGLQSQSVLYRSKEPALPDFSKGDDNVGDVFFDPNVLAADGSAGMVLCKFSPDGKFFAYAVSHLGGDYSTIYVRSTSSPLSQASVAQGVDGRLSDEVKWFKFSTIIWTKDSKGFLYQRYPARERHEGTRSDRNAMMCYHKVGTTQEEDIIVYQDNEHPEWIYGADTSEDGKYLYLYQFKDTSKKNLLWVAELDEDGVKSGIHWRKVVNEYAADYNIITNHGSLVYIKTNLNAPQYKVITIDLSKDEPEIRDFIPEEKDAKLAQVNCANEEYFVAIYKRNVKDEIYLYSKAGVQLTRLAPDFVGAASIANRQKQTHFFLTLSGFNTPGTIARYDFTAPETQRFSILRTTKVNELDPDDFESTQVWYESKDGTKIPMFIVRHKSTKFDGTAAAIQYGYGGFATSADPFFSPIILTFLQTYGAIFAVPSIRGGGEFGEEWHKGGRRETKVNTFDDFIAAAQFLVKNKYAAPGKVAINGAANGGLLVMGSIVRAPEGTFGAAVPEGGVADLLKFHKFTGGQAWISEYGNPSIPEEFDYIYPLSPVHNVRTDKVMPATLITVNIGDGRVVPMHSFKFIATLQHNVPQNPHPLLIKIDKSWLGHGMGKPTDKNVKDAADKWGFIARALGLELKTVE
# [2] = tested on: CC[C@H](C)[C@H](N)C(=O)N[C@@H](Cc1c[nH]c2ccccc12)C(=O)NCC(=O)N[C@H](C(=O)NCC(=O)N[C@@H](CS)C(=O)N[C@@H](CC(N)=O)C(=O)N1CCC[C@H]1C(=O)N[C@@H](Cc1c[nH]c2ccccc12)C(=O)N[C@H](C(=O)N[C@@H](C)C(=O)N[C@@H](CCC(=O)O)C(=O)N[C@@H](Cc1c[nH]cn1)C(=O)N[C@H](C(=O)O)C(C)C)[C@@H](C)O)[C@@H](C)CC; assay: purified protein, by the assay type; settings: pH 8.0
# Method: (§1) Comparison between distinct substrates was performed in 50 mM Tris pH 8.0, 50 mM NaCl, 10 mM DTT with varying concentrations of substrates at room temperature. All reactions were performed in duplicates. Reactions were started by adding GmPOPB (50 nM for GmAMA1_C6S, 1 μM for the 13mer and 14mer, and 20 nM for other substrates) to the assay mixture containing buffer and peptide. Reactions were quenched at several time points by adding 50 μL reaction mixture to 20 μL 6% TFA. Reactants were separated from products for quantification by injecting 50 μL of each quenched time point mix onto a ZORBAX SB-C18, 5 µm, 9.4 × 50 mm (Agilent) column connected to an Agilent LC-MS (G6130B Single Quad, Agilent Technologies). Reactants were separated from products using a gradient from H2O containing 0.1% TFA or 0.1% formic acid and 5% acetonitrile to 50% acetonitrile, at 1.5 ml/min for 8 min. […] The sum of product+substrate was assumed equal to the total initial amount of substrate, product converted from % to concentration. This value was divided by concentration of enzyme present to yield v/E t (min^−1). […] For progress curves with the 35mer substrate, measurements were triplicate and quantification relied on ion counts from mass spectrometry. […] Authentic cyclic peptide was quantified by UV absorbance. […] Kinetic data were fitted to a Michaelis–Menten equation using GraphPad Prism, and values reported are average and standard error of the mean.
# [3] = tested on: CC[C@H](C)[C@H](N)C(=O)N[C@@H](Cc1c[nH]c2ccccc12)C(=O)NCC(=O)N[C@H](C(=O)NCC(=O)N[C@@H](CS)C(=O)N[C@@H](CC(N)=O)C(=O)N1CCC[C@H]1C(=O)N[C@@H](Cc1c[nH]c2ccccc12)C(=O)N[C@H](C(=O)N[C@@H](C)C(=O)N[C@@H](CCC(=O)O)C(=O)N[C@@H](Cc1c[nH]cn1)C(=O)O)[C@@H](C)O)[C@@H](C)CC; assay: purified protein, by the assay type; settings: pH 8.0
# Method: as §1
# [4] = tested on: CC[C@H](C)[C@H](NC(=O)CNC(=O)[C@H](Cc1c[nH]c2ccccc12)NC(=O)[C@@H](NC(=O)[C@@H]1CCCN1C(=O)[C@H](CC(C)C)NC(=O)[C@H](CCCNC(=N)N)NC(=O)[C@@H](NC(=O)[C@H](C)NC(=O)[C@H](CC(N)=O)NC(=O)[C@@H](NC(=O)[C@H](CC(=O)O)NC(=O)[C@H](Cc1ccccc1)NC(=O)[C@@H](N)CCSC)[C@@H](C)O)[C@@H](C)O)[C@@H](C)CC)C(=O)NCC(=O)N[C@@H](CS)C(=O)N[C@@H](CC(N)=O)C(=O)N1CCC[C@H]1C(=O)N[C@@H](Cc1c[nH]c2ccccc12)C(=O)N[C@H](C(=O)N[C@@H](C)C(=O)N[C@@H](CCC(=O)O)C(=O)N[C@@H](Cc1c[nH]cn1)C(=O)N[C@H](C(=O)N[C@@H](CC(=O)O)C(=O)N[C@@H](CCC(N)=O)C(=O)N[C@H](C(=O)N[C@@H](CC(C)C)C(=O)N[C@@H](C)C(=O)N[C@@H](CO)C(=O)NCC(=O)N[C@@H](CC(N)=O)C(=O)N[C@@H](CC(=O)O)C(=O)N[C@H](C(=O)N[C@@H](CS)C(=O)O)[C@@H](C)CC)[C@@H](C)O)C(C)C)[C@@H](C)O; assay: purified protein, by the assay type; settings: pH 8.0
# Method: as §1
# [5] = Peptide solubility when preparing ITC ligand solutions; assay type: physicochemical; settings: peptide ligand solution for ITC
# Method: Supplementary Table 3 Thermodynamic parameters obtained by ITC.
# Peptide Sequence Kd (μM) ΔG ΔH -TΔS N
# (kcal mol-1) (kcal mol-1) (kcal mol-1) measurements
# 9mer IW GIGCNPW ND ND ND ND
# ND – peptide solubility was lower than 300 μM and measurements could not be
# Errors reported are standard error of the mean using the replicates indicated in the
# table and the fitted values using Malvern data analysis software.
# [6] = biological target: T1, GmPOPB-S577A (inactive mutant); settings: ITC, GmPOPB_S577A, cited from earlier work
# Source text: Peptide Sequence Kd (μM) ΔG ΔH -TΔS N (kcal mol-1) (kcal mol-1) (kcal mol-1) measurements 9mer IW GIGCNPW ND ND ND ND 10mer IW GIGCNPW T 83 ± 17 -5.5 ± 0.1 -3.1 ± 0.5 -2.4 ± 0.3 2 11mer IW GIGCNPW TA 39 ± 18 -5.9 ± 0.3 -1.5 ± 0.7 […] 2 12mer IW GIGCNPW TAE 21 ± 5 -6.3 ± 0.1 -1.0 ± 0.3 -5.3 ± 0.4 2 13mer IW GIGCNPW TAEH 2.4 ± 0.1 -7.3 ± 0.1 -0.6 ± 0.2 -6.9 ± 0.2 2 14mer IW GIGCNPW TAEHV 9.5 ± 1.1 -6.7 ± 0.1 -0.9 ± 0.2 -5.8 ± 0.2 2 9mer- […] 121 ± 19 -5.3 ± 0.1 -6.4 ± 1.6 2.6 ± 1.5 3 recognition sequence 12mer- ...
# GmPOPB-S577A = biological target: T2, GmPOPB-S577A (Galerina marginata, UniProt H2E7Q8, S577A); assay: ITC; settings: both partners purified
# T2 sequence: T1 sequence (H2E7Q8 1-730 S577A)
# GmPOPB-H698A = biological target: T3, GmPOPB-H698A (Galerina marginata, UniProt H2E7Q8 1-730, H698A); assay: crystal structure; co-crystallization of 100 mg/ml protein with two-fold molar excess of peptide, sitting drop, 20 °C, 12.5 mM hexammine cobalt chloride as additive; settings: both partners purified
# T3 sequence: T1 sequence (H2E7Q8 1-730 S577A) with A577S, H698A
# [7] = average ± SEM, previously published ref 21
molecule,measurement,setting,value
CC[C@H](C)[C@H](NC(=O)CNC(=O)[C@H](Cc1c[nH]c2ccccc12)NC(=O)[C@@H](NC(=O)[C@@H]1CCCN1C(=O)[C@H](CC(C)C)NC(=O)[C@H](CCCNC(=N)N)NC(=O)[C@@H](NC(=O)[C@H](C)NC(=O)[C@H](CC(N)=O)NC(=O)[C@@H](NC(=O)[C@H](CC(=O)O)NC(=O)[C@H](Cc1ccccc1)NC(=O)[C@@H](N)CCSC)[C@@H](C)O)[C@@H](C)O)[C@@H](C)CC)C(=O)NCC(=O)N[C@@H](CS)C(=O)N[C@@H](CC(N)=O)C(=O)N1CCC[C@H]1C(=O)N[C@@H](Cc1c[nH]c2ccccc12)C(=O)N[C@H](C(=O)N[C@@H](C)C(=O)N[C@@H](CCC(=O)O)C(=O)N[C@@H](Cc1c[nH]cn1)C(=O)N[C@H](C(=O)N[C@@H](CC(=O)O)C(=O)N[C@@H](CCC(N)=O)C(=O)N[C@H](C(=O)N[C@@H](CC(C)C)C(=O)N[C@@H](C)C(=O)N[C@@H](CO)C(=O)NCC(=O)N[C@@H](CC(N)=O)C(=O)N[C@@H](CC(=O)O)C(=O)N[C@H](C(=O)N[C@@H](CS)C(=O)O)[C@@H](C)CC)[C@@H](C)O)C(C)C)[C@@H](C)O [35mer],-TΔS,[1]; GmPOPB_S577A,-1.2 ± 0.4 kcal/mol
same,ΔG,[1]; GmPOPB_S577A,-9.3 ± 0.1 kcal/mol
GmPOPB (Galerina marginata CBS 339.88),Km,[2],380 µM
same,kcat,[2],0.00967 s⁻¹
same,kcat/Km,[2],16.7 ± 1.7 M⁻¹ s⁻¹
same,Km,[3],24.4 ± 5.2 µM and 25 µM
same,kcat,[3],0.00817 ± 0.0005 s⁻¹ and 0.00817 s⁻¹
same,kcat/Km,[3],333 ± 67 M⁻¹ s⁻¹
same,Km,[4],23 ± 11 µM
same,kcat,[4],0.0533 ± 0.0067 s⁻¹
same,kcat/Km,[4],2330 ± 1200 M⁻¹ s⁻¹
IWGIGCNPW [9mer],solubility,"[5]; aqueous buffer, Tris pH 8.0 buffer with DTT",< 300 µM
same,Peptide solubility,[5],not sufficiently soluble for analysis
IWGIGCNPWT [10mer],-TΔS,[1]; GmPOPB_S577A,-2.4 ± 0.3 kcal/mol
same,ΔG,[1]; GmPOPB_S577A,-5.5 ± 0.1 kcal/mol
same,ΔH,[1]; GmPOPB_S577A,-3.1 ± 0.5 kcal/mol
same,Kd,[1],83 ± 17 µM
IWGIGCNPWTA [11mer],ΔG,[1]; GmPOPB_S577A,-5.9 ± 0.3 kcal/mol
same,ΔH,[1]; GmPOPB_S577A,-1.5 ± 0.7 kcal/mol
same,Kd,[1],39 ± 18 µM
IWGIGCNPWTAE [12mer],-TΔS,[1]; GmPOPB_S577A,-5.3 ± 0.4 kcal/mol
same,ΔG,[1]; GmPOPB_S577A,-6.3 ± 0.1 kcal/mol
same,ΔH,[1]; GmPOPB_S577A,-1.0 ± 0.3 kcal/mol
same,Kd,[1],21 ± 5 µM
IWGIGCNPWTAEH [13mer],-TΔS,[1]; GmPOPB_S577A,-6.9 ± 0.2 kcal/mol
same,ΔG,[1]; GmPOPB_S577A,-7.3 ± 0.1 kcal/mol
same,ΔH,[1]; GmPOPB_S577A,-0.6 ± 0.2 kcal/mol
same,Kd,[1],2.4 ± 0.1 µM
same,Difference in affinity (reduction in binding) between the 35mer and the 13mer,"[1]; ratio of ITC Kd values, GmPOPB_S577A",~ 20 fold
MFDTNATRLP [leader peptide],Binding detected by ITC,[1]; GmPOPB_S577A,no detectable binding
same,Binding detected by ITC,"[1]; GmPOPB_S577A, listed as 10-residue leader",does not bind
TLASGNDIC [9mer-recognition sequence],-TΔS,[1]; GmPOPB_S577A,2.6 ± 1.5 kcal/mol
same,ΔG,[1]; GmPOPB_S577A,-5.3 ± 0.1 kcal/mol
same,ΔH,[1]; GmPOPB_S577A,-6.4 ± 1.6 kcal/mol
VDQTLASGNDIC [12mer-recognition sequence],-TΔS,[1]; GmPOPB_S577A,16.3 ± 3.0 kcal/mol
same,ΔG,[1]; GmPOPB_S577A,-7.1 ± 0.1 kcal/mol
same,ΔH,[1]; GmPOPB_S577A,-23.5 ± 3.1 kcal/mol
WTAEHVDQTLASGNDIC [17mer-recognition sequence],Kd,"[6]; 20 °C, 50 mM Tris pH 8.0, 50 mM NaCl, 10 mM DTT, average ± SEM, previously published ref 21",0.43 ± 0.01 µM
same,-TΔS,[6]; [7],1.7 ± 0.4 kcal/mol
same,ΔG,[6]; [7],-8.5 ± 0.1 kcal/mol
same,ΔH,[6]; [7],-10.2 ± 0.4 kcal/mol
same,Difference in ΔG between the 17mer recognition sequence and the 25mer peptide,[6],1.34 kcal/mol
same,Kd,[6]; previously published ref 21,0.43 ± 0.01 µM
TLASGNDIC [truncated recognition sequence TLASGNDIC (9 residues)],Kd,GmPOPB-S577A,121 µM
VDQTLASGNDIC [truncated recognition sequence VDQTLASGNDIC (12 residues)],Kd,GmPOPB-S577A,5 µM
"MFDTNATRLPIWGIGCNPWTAEHVDQTLASGNDIC (also called 35mer peptide) [35mer substrate (amatoxin peptide precursor, full-length substrate)]",Kd,GmPOPB-S577A,0.12 µM
same,binding result,GmPOPB-H698A,binds
